In test [1] the test system is Candida albicans ATCC 10231. Put plainly: Synergistic antimicrobial activity as MIC, 96-well microplate, optical density at 620 nm. The format is cell-based. The conditions noted are these: for microbial growth percentage: 0 B5 weight %. The source says:
with: • MIC of A with B: minimum concentration of product A in the combination A+B which makes it possible to obtain an inhibitory effect; • MIC of B with A: minimum concentration of product B in the combination A+B which makes it possible to obtain an inhibitory effect; • MIC of A: minimum inhibitory concentration of product A alone; • MIC of B: minimum inhibitory concentration of product B alone. This formula was described for the first time in the article by F. C. Kull, […], and R. L. Mayer, Applied Microbiology 9:538-541, 1961. […] When the FIC index value is less than or equal to 1, it is considered that the combination of test compounds has a synergistic effect. […] A 96-well microplate at an incubation temperature of 32.5° C. is used. […] For each compound: […] 50 μl of each of the daughter solutions obtained containing compound A and 50 μl of each of the daughter solutions obtained containing compound B are added to the microplate wells. 100 μl of Sabouraud liquid nutrient broth inoculated at double concentration with the strain Aspergillus niger are also added thereto. A positive microbial growth control was also prepared. […] An absorbance control was performed in parallel on compounds A and B alone. This control corresponds to 100 μl of double concentration sterile Sabouraud liquid nutrient broth+100 μl of double concentration compound A or B. […] The test as described above (tests, absorbance control and growth control) was performed again to test the combination A+B on the following strains Enterococcus faecalis, Staphylococcus aureus, Pseudomonas aeruginosa, Candida albicans, where appropriate.

The subject of test [2] is Enterococcus faecalis ATCC 33186. The description is as above. The format is cell-based. As to conditions: for % MIC of A alone: Enterococcus faecalis, growth <= 25%. The source says:
FIC Index=(MIC of A with B/MIC of A)+(MIC of B with A/MIC of B [Math. 1]
with: • MIC of A with B: minimum concentration of product A in the combination A+B which makes it possible to obtain an inhibitory effect; • MIC of B with A: minimum concentration of product B in the combination A+B which makes it possible to obtain an inhibitory effect; • MIC of A: minimum inhibitory concentration of product A alone; • MIC of B: minimum inhibitory concentration of product B alone. This formula was described for the first time in the article by F. C. Kull, P. C. Eisman, H. D. Sylwestrowka, and R. L. Mayer, Applied Microbiology 9:538-541, 1961.
The microbial strain Enterococcus faecalis ATCC 33186 and a double-concentration BHI (Brain Heart Infusion) broth liquid culture medium were used.
A 96-well microplate at an incubation temperature of 32.5° C. is used.
The incubation time of the microplate is: • from 24 to 30 h under aerobic conditions for microbial Aspergillus niger ATCC 6275; • from 18 to 24 h under aerobic conditions for Candida albicans ATCC 10231, Pseudomonas aeruginosa ATCC 9027 and Staphylococcus aureus ATCC 6538; • from 24 to 48 h under aerobic conditions for Enterococcus faecalis ATCC 33186.
For each compound: A=4-(3-ethoxy-4-hydroxyphenyl) butan-2-one compound B=alcohol compound A 10% (weight/volume) stock solution was prepared by mixing 1 g of compound in 9 ml of aqueous 1% agar solution. Successive dilutions were made with the 1% agar solution.
50 μl of each of the daughter solutions obtained containing compound A or B are added to the microplate wells. 100 μl of Sabouraud liquid nutrient broth inoculated at double concentration with the Aspergillus niger strain and 50 μl of aqueous 1% agar solution are also added thereto.
50 μl of each of the daughter solutions obtained containing compound A and 50 μl of each of the daughter solutions obtained containing compound B are added to the microplate wells. 100 μl of Sabouraud liquid nutrient broth inoculated at double concentration with the strain Aspergillus niger are also added thereto.
A positive microbial growth control was also prepared. The positive microbial growth control corresponds to a mixture of 100 μl of aqueous 1% agar solution with 100 μl of Sabouraud liquid nutrient broth inoculated at double concentration with the strain Aspergillus niger in the absence of compounds A and B.
An absorbance control was performed in parallel on compounds A and B alone. This control corresponds to 100 μl of double concentration sterile Sabouraud liquid nutrient broth+100 μl of double concentration compound A or B.
In the three cases (absorbance control, growth control and test), the final volume present in each of the microplate wells is 200 μl.
The test as described above (tests, absorbance control and growth control) was performed again to test the combination A+B on the following strains Enterococcus faecalis, Staphylococcus aureus, Pseudomonas aeruginosa, Candida albicans, where appropriate.

SMILES strings stand for the structures.

Take `CCOc1cc(CCC(C)=O)ccc1O` [A, 4-(3-ethoxy-4-hydroxyphenyl)butan-2-one]: the microbial growth percentage in test [1] (0.025 A) is recorded as 69%; in test [1] (0.05 A), 54%; in test [1] (0.1 A), 27%; in test [1] (0.2 A), 4%; in test [2] (0.0625 A, 0 B3 weight %), 70%; in test [2] (0.0625 A, 0 B4 weight %), 44%. Further, the microbial growth percentage in test [2] (0.0625 A, 0 B6 weight %) is 35%; in test [2] (0.125 A, 0 B3 weight %) it was 31%; in test [2] (0.125 A, 0 B4 weight %) it was 39%; in test [2] (0.125 A, 0 B6 weight %), 43%; in test [2] (0.25 A, 0 B3 weight %), 27%; in test [2] (0.25 A, 0 B4 weight %) it was 38%. Besides, the microbial growth percentage in test [2] (0.25 A, 0 B6 weight %) was 34%; in test [2] (0.5 A, 0 B3 weight %), 14%; in test [2] (0.5 A, 0 B4 weight %), 12%; in test [2] (0.5 A, 0 B6 weight %) it was 0%. The “% MIC of A alone” value in test [1] (Candida albicans, Example 5, growth <= 25%) is on record as 0.2%; in test [2] (Example 3) it was 0.5%; in test [2] (Example 4), 0.5%; in test [2] (Example 6), 0.5%.

Source of the values: patent US20220174947A1, “ANTIMICROBIAL MIXTURE CONTAINING 4-(3-ETHOXY-4-HYDROXYPHENYL)BUTAN-2-ONE AND AN ALCOHOL COMPOUND, AND COSMETIC COMPOSITION CONTAINING SAME” (L'OREAL, priority 2018, published 2022).
